Patent US20120269799A1, “DIAGNOSTIC AND TREATMENT METHODS USING A LIGAND LIBRARY” (priority 2011, published 2012)

Tested on: anti-DNP antibody
Assay: Competition between free ethanolamine-DNP and DNP on a plate
Format: binding
Conditions: 1,000 ug/mL sera concentration
Description: The Mean fluorescence intensity (MFI) separation was greatest at the higher dilution of 1,000 ug/mL sera.

O=[N+]([O-])c1ccc(NCCO)c([N+](=O)[O-])c1 [ethanolamine-DNP]
competition with the binding of DNP (on a plate) to anti-DNP antibody: direct competition
